Here are results for 20 compounds from patent US10301261B2, “Substituted indoles as modulators of ROR-gamma” (Vitae Pharmaceuticals, LLC, priority 2015, dated 2019).

For assay [1], the target named is recombinant RORγ Ligand Binding Domain (LBD) protein (Homo sapiens (Human), UniProt P51449). As to the kind of experiment: Radio-Ligand RORγ Binding Assay (Assay 1). The settings on record: radio-ligand 25-hydroxy [26,27-3H]-cholesterol competition. The procedure: Radio-Ligand RORγ Binding Assay (Assay 1)
recombinant RORγ Ligand Binding Domain (LBD) protein, sequence (P51449 269-508): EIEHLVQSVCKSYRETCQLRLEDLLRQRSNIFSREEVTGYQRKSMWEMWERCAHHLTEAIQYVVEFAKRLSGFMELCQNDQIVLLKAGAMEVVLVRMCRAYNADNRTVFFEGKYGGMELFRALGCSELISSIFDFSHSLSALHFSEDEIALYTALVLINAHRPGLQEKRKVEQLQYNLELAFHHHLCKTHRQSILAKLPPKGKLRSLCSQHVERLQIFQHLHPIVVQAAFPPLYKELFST
Compounds described herein were tested for ability to bind to RORγ in a cell-free competition assay with commercially available radio-ligand (RL), 25-hydroxy [26,27-^3H]-cholesterol (PerkinElmer, Cat. # NET674250UC), for a ligand binding site on a recombinant RORγ Ligand Binding Domain (LBD) protein expressed as a 6×His-Glutathione-S-Transferase (GST) fusion. […] The plate was shaken at 700 rpm for 20 min and incubated for 10 min at rt, after which 40 μL of poly-Lys YSi SPA beads (PerkinElmer, Cat. # RPNQ0010) were added to achieve 50 μg of the beads per well. The plate was incubated on an orbital shaker for 20 min and then for 10 min without agitation at rt. SPA signal for tritium beta radiation was registered on PerkinElmer Microbeta plate reader. […] The percent inhibition vs. concentration data were fit into a four-parameter model, and IC50 values were calculated from the fit as the concentrations corresponding to the inflection points on the dose-response curves. […]

Assay [2] concerns the target full-length RORγt in Jurkat cells (Homo sapiens (Human), UniProt P51449). As to the kind of experiment: RORγt 5×RORE Assay in Jurkat Cells (Assay 2). The assay is classed as cell-based. The settings on record: RORγt 5×RORE Nanoluc reporter. How it is done:
[formula] RORγt 5×RORE Assay in Jurkat Cells (Assay 2)
Compounds described herein were tested for RORγ inverse agonist activity in a cell-based, transcriptional activity assay. […] (Promega, Cat. # N1021) using KpnI and HindIII restriction sites. […] Tested compounds were added to the cells in the same media (final concentration of DMSO was 0.1% (v/v)), and the plates were incubated at 37° C./5% CO2 for 16-18 hrs. Luciferase activity in the conditioned supernatants was determined with NanoGlo® assay reagents (Promega, Cat.# N1130).

full-length RORγt in Jurkat cells, sequence (P51449 other isoform, or with tags, fused parts or gaps): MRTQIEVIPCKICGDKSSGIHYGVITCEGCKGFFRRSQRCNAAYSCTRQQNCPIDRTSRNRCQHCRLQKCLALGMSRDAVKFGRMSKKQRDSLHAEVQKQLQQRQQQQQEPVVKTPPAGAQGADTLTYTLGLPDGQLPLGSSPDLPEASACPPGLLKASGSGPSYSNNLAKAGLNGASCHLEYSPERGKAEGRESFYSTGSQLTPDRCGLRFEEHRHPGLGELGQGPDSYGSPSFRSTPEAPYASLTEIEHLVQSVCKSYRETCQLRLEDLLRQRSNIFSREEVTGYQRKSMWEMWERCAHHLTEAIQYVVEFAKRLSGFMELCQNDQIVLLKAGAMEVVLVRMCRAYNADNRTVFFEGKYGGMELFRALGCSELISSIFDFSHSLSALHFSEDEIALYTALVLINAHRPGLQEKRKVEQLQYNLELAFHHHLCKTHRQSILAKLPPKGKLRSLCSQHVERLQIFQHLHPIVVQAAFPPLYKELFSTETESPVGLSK

In the case of `CCS(=O)(=O)c1ccc([C@H](CO)NC(=O)c2ccc3c(c2)nc(C[C@H]2CC[C@H](C(F)(F)F)CC2)n3C2CC2)nc1` [BE-28, 1-cyclopropyl-N-((R)-1-(5-(ethylsulfonyl)pyridin-2-yl)-2-hydroxyethyl)-2-(((1r,4R)-4-(trifluoromethyl)cyclohexyl)methyl)-1H-benzo[d]imidazole-5-carboxamide], the inhibition constant Ki (as a rule, a dissociation constant, usually derived from enzyme kinetics or from competition with a known ligand) in assay [1] was less than 100 nM. The IC50 (commonly the point on the concentration scale where inhibition reaches its midpoint) in assay [2] is less than 100 nM.

As for `CCS(=O)(=O)c1ccc([C@H](CCO)NC(=O)c2ccc3c(c2)nc(C[C@H]2CC[C@H](C(F)(F)F)CC2)n3C2CC2)cc1` [BE-25, 1-cyclopropyl-N-((S)-1-(4-(ethylsulfonyl)phenyl)-3-hydroxypropyl)-2-(((1r,4S)-4-(trifluoromethyl)cyclohexyl)methyl)-1H-benzo[d]imidazole-5-carboxamide], in assay [1], the inhibitory constant (Ki) is less than 100 nM. Moreover, the IC50 in assay [2] is less than 100 nM.

Consider `CCS(=O)(=O)c1ccc([C@H](CO)NC(=O)c2ccc3c(c2)nc(OCC2CCC(F)(F)CC2)n3C2CC2)cc1` [BE-16, (R)-1-cyclopropyl-2-((4,4-difluorocyclohexyl)methoxy)-N-(1-(4-(ethylsulfonyl)phenyl)-2-hydroxyethyl)-1H-benzo[d]imidazole-5-carboxamide], for which the inhibition constant (Ki) in assay [1] is less than 100 nM. This compound yielded a half-maximal inhibitory concentration (IC50) in assay [2] of less than 100 nM.

As for `CCS(=O)(=O)c1ccc(CNC(=O)c2ccc3c(c2)nc(C[C@H]2CC[C@H](C(F)(F)F)CC2)n3CC(C)C)nc1` [BE-26.1, N-((5-(ethylsulfonyl)pyridin-2-yl)methyl)-1-isobutyl-2-(((1r,4r)-4-(trifluoromethyl)cyclohexyl)methyl)-1H-benzo[d]imidazole-5-carboxamide], in assay [1], the inhibition constant Ki was less than 100 nM. In assay [2], this compound registered a 50% inhibitory concentration (IC50) greater than 1000 nM.

In the case of `CCS(=O)(=O)c1ccc(CNC(=O)c2ccc3c(c2)nc(C(=O)C2CCC(C(F)(F)F)CC2)n3C2CC2)cc1` (stereo not drawn) [BE-64, 1-cyclopropyl-N-(4-(ethylsulfonyl)benzyl)-2-(4-(trifluoromethyl)cyclohexane-1-carbonyl)-1H-benzo[d]imidazole-5-carboxamide], in assay [1], the Ki was less than 100 nM.

Consider `CCn1c(CC2CCC(C(F)(F)F)OC2)nc2cc(C(=O)NCc3ccc(S(=O)(=O)CC)cc3)ccc21` (single isomer, unassigned) [BE-56.2, 1-ethyl-N-(4-(ethylsulfonyl)benzyl)-2-((6-(trifluoromethyl)tetrahydro-2H-pyran-3-yl)methyl)-1H-benzo[d]imidazole-5-carboxamide], for which the inhibition constant Ki in assay [1] was in the range of 100 to 1000 nM.

For `CCS(=O)(=O)c1ccc(CC(=O)Nc2ccc3c(c2)nc(Cc2ccc(C(F)(F)F)cc2)n3CC(C)C)cc1` [BE-68, 2-(4-(ethylsulfonyl)phenyl)-N-(1-isobutyl-2-(4-(trifluoromethyl)benzyl)-1H-benzo[d]imidazol-5-yl)acetamide], the Ki in assay [1] is less than 100 nM.

As to `CCn1c(Cc2cccc(OC(F)F)c2)cc2cc(C(=O)N[C@@H](CO)c3ccc(S(=O)(=O)CC)cn3)ccc21` [IN-7, (R)-2-(3-(difluoromethoxy)benzyl)-1-ethyl-N-(1-(5-(ethylsulfonyl)pyridin-2-yl)-2-hydroxyethyl)-1H-indole-5-carboxamide], the inhibitory constant (Ki) in assay [1] was less than 100 nM.

With `CCS(=O)(=O)c1ccc(CNC(=O)c2cc(Br)c3c(c2)nc(C[C@H]2CC[C@H](C(F)(F)F)CC2)n3C)cc1` [BE-58, 7-bromo-N-(4-(ethylsulfonyl)benzyl)-1-methyl-2-(((1r,4r)-4-(trifluoromethyl)cyclohexyl)methyl)-1H-benzo[d]imidazole-5-carboxamide], the Ki in assay [1] is 100 to 1000 nM.

Consider `CCS(=O)(=O)c1ccc(CNC(=O)c2ccc3c(c2)nc(Cc2ccc(C(F)(F)F)cc2)n3CC(C)C)nc1` [BE-43, N-((5-(ethylsulfonyl)pyridin-2-yl)methyl)-1-isobutyl-2-(4-(trifluoromethyl)benzyl)-1H-benzo[d]imidazole-5-carboxamide], for which the Ki in assay [1] is less than 100 nM.

Turning to `CCn1c(CC2CCC(C(F)(F)F)OC2)nc2cc(C(=O)NCc3ccc(S(=O)(=O)CC)cc3)ccc21` (single isomer, unassigned) [BE-56.3, 1-ethyl-N-(4-(ethylsulfonyl)benzyl)-2-((6-(trifluoromethyl)tetrahydro-2H-pyran-3-yl)methyl)-1H-benzo[d]imidazole-5-carboxamide], in assay [1], the Ki lay in the range of 100 to 1000 nM.

`CCS(=O)(=O)c1ccc(C(C)NC(=O)c2ccc3c(c2)nc(Cc2ccc(C(F)(F)F)cc2)n3CC(C)C)cc1` (single isomer, unassigned) [BE-45]: in assay [1], the Ki is […].

With `CCS(=O)(=O)c1ccc(CNC(=O)c2ccc3c(c2)nc(Cc2ccc(C(F)(F)F)cc2)n3C2CCC2)cc1` [BE-38, 1-cyclobutyl-N-(4-(ethylsulfonyl)benzyl)-2-(4-(trifluoromethyl)benzyl)-1H-benzo[d]imidazole-5-carboxamide], the Ki in assay [1] is less than 100 nM.

In the case of `CCn1c(CC2CCC(C(F)(F)F)OC2)nc2cc(C(=O)NCc3ccc(S(=O)(=O)CC)cc3)ccc21` (single isomer, unassigned) [BE-56.1, 1-ethyl-N-(4-(ethylsulfonyl)benzyl)-2-((6-(trifluoromethyl)tetrahydro-2H-pyran-3-yl)methyl)-1H-benzo[d]imidazole-5-carboxamide], the Ki in assay [1] was in the range of 100 to 1000 nM.

For `C=C(C)Cn1c(Cc2ccc(C(F)(F)F)cc2)cc2cc(C(=O)NCc3ccc(S(=O)(=O)CC)cc3)cnc21` [AI-3, N-(4-(ethylsulfonyl)benzyl)-1-(2-methylallyl)-2-(4-(trifluoromethyl)benzyl)-1H-pyrrolo[2,3-b]pyridine-5-carboxamide], the inhibition constant Ki in assay [1] is less than 100 nM.

Consider `CCS(=O)(=O)c1ccc(CNC(=O)c2cc(Br)c3c(c2)nc(Cc2ccc(C(F)(F)F)cc2)n3C)cc1` [BE-59, 7-bromo-N-(4-(ethylsulfonyl)benzyl)-1-methyl-2-(4-(trifluoromethyl)benzyl)-1H-benzo[d]imidazole-5-carboxamide], for which the inhibition constant (Ki) in assay [1] lay in the range of 100 to 1000 nM.

On to `CCn1c(Oc2ccc(C(F)(F)F)cc2)nc2cc(C(=O)N[C@@H](CN(C)C)c3ccc(S(=O)(=O)CC)cc3)ccc21` [BE-10, (R)-N-(2-(dimethylamino)-1-(4-(ethylsulfonyl)phenyl)ethyl)-1-ethyl-2-(4-(trifluoromethyl)phenoxy)-1H-benzo[d]imidazole-5-carboxamide], for which the Ki in assay [1] fell in the range of 100 to 1000 nM.

Consider `CCS(=O)(=O)c1ccc([C@@H](CO)NC(=O)c2ccc3c(c2)nc(C[C@H]2CC[C@H](C(F)(F)F)CC2)n3C2CC2)nc1` [BE-29, 1-cyclopropyl-N-((S)-1-(5-(ethylsulfonyl)pyridin-2-yl)-2-hydroxyethyl)-2-(((1r,4S)-4-(trifluoromethyl)cyclohexyl)methyl)-1H-benzo[d]imidazole-5-carboxamide], for which the inhibitory constant (Ki) in assay [1] is greater than 1000 nM.

Turning to `CCn1c(Cc2ccc(OC(F)F)cc2)cc2cc(C(=O)N[C@@H](CO)c3ccc(S(=O)(=O)CC)cn3)ccc21` [IN-6, (R)-2-(4-(difluoromethoxy)benzyl)-1-ethyl-N-(1-(5-(ethylsulfonyl)pyridin-2-yl)-2-hydroxyethyl)-1H-indole-5-carboxamide], the Ki in assay [1] is less than 100 nM.

In the case of `CS(=O)(=O)c1ccc(CNC(=O)c2cnc3c(c2)nc(Cc2ccc(C(F)(F)F)cc2)n3C2CC2)cc1` [AB-2, 3-cyclopropyl-N-(4-(methylsulfonyl)benzyl)-2-(4-(trifluoromethyl)benzyl)-3H-imidazo[4,5-b]pyridine-6-carboxamide], in assay [1], the inhibition constant (Ki) lay within 100 to 1000 nM.
